What was measured:
Assay in all cases: relative viability (nuclei count vs DMSO), 5 days (fraction); higher = more cells survive
NCI-H1666 = system: NCI-H1666
How it was run: (§1)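 For relative viability, nuclei counts in treated wells were divided by those in vehicle wells. Lung cancer cell lines had been pin-tool dosed in 1536-well plates the day after seeding and cultured for 5 days, then fixed and stained in one step (final 0.05% Triton X-100, 1% formaldehyde, 1 ug/ml Hoechst) and imaged at 4×. Doses were one drug alone or a fixed anchor-drug dose plus five library-drug doses (not always all listed) in √10 steps, and values are duplicate-plate medians.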

PC-14 = system: PC-14
How it was run: as §1

NCI-H2087 = system: NCI-H2087
How it was run: as §1

LC-2-ad = system: LC-2-ad
How it was run: as §1

HCC-78 = system: HCC-78
How it was run: as §1

NCI-H2405 = system: NCI-H2405
How it was run: as §1

COR-L 105 = system: COR-L 105
How it was run: as §1

EPLC-272H = system: EPLC-272H
How it was run: as §1

NCI-H23 = system: NCI-H23
How it was run: as §1

RERF-LC-KJ = system: RERF-LC-KJ
How it was run: as §1

NCI-H1915 = system: NCI-H1915
How it was run: as §1

201T = system: 201T
How it was run: as §1

NCI-H2126 = system: NCI-H2126
How it was run: as §1

NCI-H2347 = system: NCI-H2347
How it was run: as §1

H3255 = system: H3255
How it was run: as §1

NCI-H520 = system: NCI-H520
How it was run: as §1

NCI-H650 = system: NCI-H650
How it was run: as §1

NCI-H661 = system: NCI-H661
How it was run: as §1

ChaGo-K-1 = system: ChaGo-K-1
How it was run: as §1

NCI-H647 = system: NCI-H647
How it was run: as §1

LCLC-97TM1 = system: LCLC-97TM1
How it was run: as §1

HCC-827 = system: HCC-827
How it was run: as §1

## COc1cc2nccc(Oc3ccc(NC(=O)Nc4cc(C)on4)c(Cl)c3)c2cc1OC [Tivozanib] + N=C(N)NC(=N)NCCc1ccccc1 [Phenformin] (partner 250 µM)
NCI-H1666; first compound 0.005 µM
  relative viability: 0.507
NCI-H1666; first compound 0.01581 µM
  relative viability: 0.553
NCI-H1666; first compound 0.05 µM
  relative viability: 0.579
NCI-H1666; first compound 0.1581 µM
  relative viability: 0.569
NCI-H1666; first compound 0.5 µM
  relative viability: 0.582
PC-14; first compound 0.005 µM
  relative viability: 0.443
PC-14; first compound 0.01581 µM
  relative viability: 0.656
PC-14; first compound 0.05 µM
  relative viability: 0.588
PC-14; first compound 0.1581 µM
  relative viability: 0.611
PC-14; first compound 0.5 µM
  relative viability: 0.501
NCI-H2087; first compound 0.005 µM
  relative viability: 0.416
NCI-H2087; first compound 0.01581 µM
  relative viability: 0.444
NCI-H2087; first compound 0.05 µM
  relative viability: 0.496
NCI-H2087; first compound 0.1581 µM
  relative viability: 0.407
NCI-H2087; first compound 0.5 µM
  relative viability: 0.415
LC-2-ad; first compound 0.005 µM
  relative viability: 0.593
LC-2-ad; first compound 0.01581 µM
  relative viability: 0.548
LC-2-ad; first compound 0.05 µM
  relative viability: 0.579
LC-2-ad; first compound 0.1581 µM
  relative viability: 0.514
LC-2-ad; first compound 0.5 µM
  relative viability: 0.387
HCC-78; first compound 0.005 µM
  relative viability: 0.619
HCC-78; first compound 0.01581 µM
  relative viability: 0.658
HCC-78; first compound 0.05 µM
  relative viability: 0.85
HCC-78; first compound 0.1581 µM
  relative viability: 0.529
HCC-78; first compound 0.5 µM
  relative viability: 0.655
NCI-H2405; first compound 0.005 µM
  relative viability: 0.418
NCI-H2405; first compound 0.01581 µM
  relative viability: 0.401
NCI-H2405; first compound 0.05 µM
  relative viability: 0.436
NCI-H2405; first compound 0.1581 µM
  relative viability: 0.373
NCI-H2405; first compound 0.5 µM
  relative viability: 0.375
COR-L 105; first compound 0.005 µM
  relative viability: 0.49
COR-L 105; first compound 0.01581 µM
  relative viability: 0.482
COR-L 105; first compound 0.05 µM
  relative viability: 0.558
COR-L 105; first compound 0.1581 µM
  relative viability: 0.501
COR-L 105; first compound 0.5 µM
  relative viability: 0.43
EPLC-272H; first compound 0.005 µM
  relative viability: 0.271
EPLC-272H; first compound 0.01581 µM
  relative viability: 0.355
EPLC-272H; first compound 0.05 µM
  relative viability: 0.359
EPLC-272H; first compound 0.1581 µM
  relative viability: 0.314
EPLC-272H; first compound 0.5 µM
  relative viability: 0.239
NCI-H23; first compound 0.005 µM
  relative viability: 0.727
NCI-H23; first compound 0.01581 µM
  relative viability: 0.824
NCI-H23; first compound 0.05 µM
  relative viability: 0.783
NCI-H23; first compound 0.1581 µM
  relative viability: 0.752
NCI-H23; first compound 0.5 µM
  relative viability: 0.809
RERF-LC-KJ; first compound 0.005 µM
  relative viability: 0.402
RERF-LC-KJ; first compound 0.01581 µM
  relative viability: 0.375
RERF-LC-KJ; first compound 0.05 µM
  relative viability: 0.468
RERF-LC-KJ; first compound 0.1581 µM
  relative viability: 0.411
RERF-LC-KJ; first compound 0.5 µM
  relative viability: 0.382
NCI-H1915; first compound 0.005 µM
  relative viability: 0.365
NCI-H1915; first compound 0.01581 µM
  relative viability: 0.388
NCI-H1915; first compound 0.05 µM
  relative viability: 0.317
NCI-H1915; first compound 0.1581 µM
  relative viability: 0.373
NCI-H1915; first compound 0.5 µM
  relative viability: 0.309
201T; first compound 0.005 µM
  relative viability: 0.447
201T; first compound 0.01581 µM
  relative viability: 0.405
201T; first compound 0.05 µM
  relative viability: 0.423
201T; first compound 0.1581 µM
  relative viability: 0.445
201T; first compound 0.5 µM
  relative viability: 0.469
NCI-H2126; first compound 0.005 µM
  relative viability: 0.486
NCI-H2126; first compound 0.01581 µM
  relative viability: 0.546
NCI-H2126; first compound 0.05 µM
  relative viability: 0.553
NCI-H2126; first compound 0.1581 µM
  relative viability: 0.516
NCI-H2126; first compound 0.5 µM
  relative viability: 0.528
NCI-H2347; first compound 0.01581 µM
  relative viability: 0.484
NCI-H2347; first compound 0.05 µM
  relative viability: 0.512
NCI-H2347; first compound 0.5 µM
  relative viability: 0.438
H3255; first compound 0.005 µM
  relative viability: 0.332
H3255; first compound 0.01581 µM
  relative viability: 0.333
H3255; first compound 0.05 µM
  relative viability: 0.354
H3255; first compound 0.1581 µM
  relative viability: 0.339
H3255; first compound 0.5 µM
  relative viability: 0.351
NCI-H520; first compound 0.005 µM
  relative viability: 0.57
NCI-H520; first compound 0.01581 µM
  relative viability: 0.539
NCI-H520; first compound 0.05 µM
  relative viability: 0.631
NCI-H520; first compound 0.1581 µM
  relative viability: 0.311
NCI-H520; first compound 0.5 µM
  relative viability: 0.348
NCI-H650; first compound 0.005 µM
  relative viability: 0.395
NCI-H650; first compound 0.01581 µM
  relative viability: 0.457
NCI-H650; first compound 0.05 µM
  relative viability: 0.472
NCI-H650; first compound 0.1581 µM
  relative viability: 0.39
NCI-H650; first compound 0.5 µM
  relative viability: 0.333
NCI-H661; first compound 0.005 µM
  relative viability: 0.264
NCI-H661; first compound 0.01581 µM
  relative viability: 0.277
NCI-H661; first compound 0.05 µM
  relative viability: 0.277
NCI-H661; first compound 0.1581 µM
  relative viability: 0.278
NCI-H661; first compound 0.5 µM
  relative viability: 0.249
ChaGo-K-1; first compound 0.005 µM
  relative viability: 0.474
ChaGo-K-1; first compound 0.01581 µM
  relative viability: 0.488
ChaGo-K-1; first compound 0.05 µM
  relative viability: 0.492
ChaGo-K-1; first compound 0.1581 µM
  relative viability: 0.507
ChaGo-K-1; first compound 0.5 µM
  relative viability: 0.433
NCI-H647; first compound 0.005 µM
  relative viability: 0.538
NCI-H647; first compound 0.01581 µM
  relative viability: 0.457
NCI-H647; first compound 0.05 µM
  relative viability: 0.473
NCI-H647; first compound 0.1581 µM
  relative viability: 0.469
NCI-H647; first compound 0.5 µM
  relative viability: 0.497
LCLC-97TM1; first compound 0.005 µM
  relative viability: 0.423
LCLC-97TM1; first compound 0.01581 µM
  relative viability: 0.49
LCLC-97TM1; first compound 0.05 µM
  relative viability: 0.417
LCLC-97TM1; first compound 0.1581 µM
  relative viability: 0.473
LCLC-97TM1; first compound 0.5 µM
  relative viability: 0.395
HCC-827; first compound 0.005 µM
  relative viability: 0.402
HCC-827; first compound 0.01581 µM
  relative viability: 0.434
HCC-827; first compound 0.05 µM
  relative viability: 0.391
HCC-827; first compound 0.1581 µM
  relative viability: 0.43
HCC-827; first compound 0.5 µM
  relative viability: 0.452
